In ChEMBL document CHEMBL1154672, “Four new cytotoxic oligosaccharidic derivatives of 12-oleanene from Lysimachia heterogenea Klatt” (Bioorg Med Chem Lett, 2009):

Tests used:
Format in all cases: functional, cell-based
[1] = test system: A549; assay: Cytotoxicity against human A549 cells after 72 hrs; details: A549, 72 h
[2] = test system: A549; assay: Cytotoxicity against human A549 cells after 2 hrs; details: A549, 2 h
[3] = test system: A549; assay: Cytotoxicity against human A549 cells; details: TDE = time-dependent effect
[4] = test system: A549; assay: Cytotoxicity against human A549 cells after 9 hrs; details: A549, 9 h

SMILES	IC50 [1] [µM]	IC50 [2] [µM]	Activity [3]	IC50 [4] [µM]
CC1(C)CC[C@]2(CO)[C@H](O)C[C@]3(C)C(=CC[C@@H]4[C@@]5(C)CC[C@H](O[C@@H]6OC[C@H](O)[C@H](O)[C@H]6O[C@@H]6O[C@H](CO)[C@@H](O)[C@H](O)[C@H]6O[C@@H]6OC[C@@H](O)[C@H](O)[C@H]6O)[C@@](C)(CO)[C@@H]5CC[C@]43C)[C@H]2C1 [HETERGENOSIDE B]	19.1	26.4	–	–
CC1(C)CC[C@]2(CO)[C@H](O)C[C@]3(C)C(=CC[C@@H]4[C@@]5(C)CC[C@H](O[C@@H]6OC[C@H](O)[C@H](O)[C@H]6O[C@@H]6O[C@H](CO)[C@@H](O)[C@H](O)[C@H]6O)[C@@](C)(CO)[C@@H]5CC[C@]43C)[C@H]2C1 [HETEROGENOSIDE A]	24.5	–	tde	> 100
